From patent US20240261272A1, “LPA1 ANTAGONISTS FOR TREATING INTERSTITIAL LUNG DISEASE” (Bristol-Myers Squibb Company, priority 2022, published 2024)

How the values were obtained:
Format in all cases: in vivo, human
[1] = Phase 1 Part C MAD study in healthy Japanese participants: blood pressure; details: for Maximum of Mean (±SD) Reduction in DBP from Baseline (Baseline): MAD Japanese Part C
Protocol: (§1) The study was performed in 3 parts in 112 healthy male and female participants, including 24 Japanese participants. Female participants were to be not of childbearing potential. The present study was designed to evaluate the safety and tolerability, PK, and exploratory PD of an oral suspension of Compound A. Parts A and B (Cohort B1 only) enrolled healthy participants and was conducted at a site in The Netherlands and Part B (Cohort B2 to B5) enrolled healthy non-Japanese participants and was conducted at a site in the United Kingdom (UK). Part C enrolled healthy Japanese participants and was conducted at the same site in the UK.
Part C was a MAD study in 3 sequential dose escalation cohorts (30 mg BID, 60 mg BID, and 90 mg BID) of 8 healthy Japanese participants (6 active+2 placebo) each. Eligible participants in Cohorts C1 to C3 received study drug (Compound A or placebo) administered orally for 14 days.
(§2) Physical examinations, vital sign measurements (including orthostasis testing in Cohort A6, Cohort B3 to B5, and C1 to C3 at selected time points), 12-lead electrocardiogram (ECG), and clinical laboratory evaluations were performed at selected times throughout the study. In addition, Holter monitoring was performed for the first 24 hours post dose on Day 1 in Part A (not in FE/pH cohort), and also for the first 24 hours post dose on Day 1 and Day 14 in Parts B and C. Participants were closely monitored for adverse events (AEs). Blood samples were collected for up to 14 days (follow-up visit) after (last) study drug administration for PK analysis. In addition, blood and urine were collected for exploratory biomarker assessments and for biobanking of samples for potential analyses. Urine was collected for potential PK analysis for up to 96 hours after a single dose of Compound A or placebo was administered in the SAD part, and for up to 24 hours after the first (morning) dose of study drug on Day 1 and for up to 24 hours after the last (morning) dose of study drug on Day 14 in the MAD parts.

participants with IPF = assay: Phase 2 study, IPF cohort: efficacy (rate of change in ppFVC, FVC); details: for relative treatment benefit compared to PBO (ppFVC) / relative reduction in rate of decline in ppFVC compared to PBO: 60 mg; for relative reduction in rate of decline in ppFVC compared to PBO: overall
Protocol: A total of 278 participants with IPF were randomized and 276 participants were treated as of the final analyses data cut-off (4 Aug. 2022). Male and female participants ≥40 years of age with IPF and percent predicted forced vital capacity (ppFVC)≥40% and percent predicted DLCO (ppDLCO)≥25%; diagnosed within 7 years of screening; having a centrally-read chest HRCT obtained at screening that was consistent with UIP or probable UIP, or having a lung biopsy consistent with UIP, were eligible to enter the study. The mean baseline ppFVC for all subjects was 76.5%. In the primary IPF cohort, participants were randomized (1:1:1) to receive 30 mg or 60 mg Compound A or placebo (PBO) twice daily for 26 weeks. Participants were stratified by standard of care (SoC) IPF therapy (pirfenidone versus nintedanib versus none) and region (Japan versus Rest of World) at randomization.
The primary objective of the study was to determine the rate of change in ppFVC from baseline to Week 26. The primary objective was evaluated with a two estimand framework to handle the intercurrent event of dose reduction to 10 mg BID or matching PBO when pre-specified low BP criteria is met. The primary estimand is adopted to estimate treatment effect when dose reduction is implemented. The supplementary estimand is adopted to estimate the effect of treatment without dose reduction.
Analysis Strategy: The primary estimand was to evaluate the efficacy of Compound A at 30 mg or 60 mg twice daily, compared to PBO in IPF participants who met the enrollment criteria, with or without use of SoC. The rate of decline in ppFVC (%) from baseline to Week 26 was compared using the difference between each dose and PBO as a population level summary regardless of dose reduction or treatment discontinuation for any reason (treatment policy strategy).
Analysis Strategy: The supplementary estimand for the primary objective is to evaluate the efficacy of Compound A at 30 mg or 60 mg twice daily without dose reduction, compared to the PBO in IPF subjects who met the enrollment criteria, with or without use of SoC. The rate of decline in ppFVC (%) from baseline to Week 26 has been compared using the difference between each dose and PBO as a population level summary regardless of treatment discontinuation for any reason (treatment policy strategy). In the event of dose reduction, data collected after dose reduction will not be considered relevant to the treatment effect of interest and therefore, will be treated as missing (while-on-treatment strategy).

[2] = Phase 1 Part B multiple ascending dose (MAD) study in healthy participants: safety, blood pressure; set-up: Mean DBP: unit not given here
Protocol: as §1
Part B was a MAD study in a planned number of 6 sequential dose escalation cohorts (10 mg QD, 30 mg QD, 30 mg BID, 60 mg BID, 125 mg BID, and ≤250 mg BID) of 8 healthy participants (6 active+2 placebo) each, under fasted conditions. However, Cohort B6 (≤250 mg BID) was cancelled because sufficient safety and PK data had been obtained at doses up to 125 mg BID. Eligible participants received study drug (Compound A or placebo) administered orally for 14 days.
as §2

CCCN(C)C(=O)OCc1c(-c2ccc(O[C@H]3CCC[C@H](C(=O)O)C3)c(C)n2)nnn1C [Compound A, (1S,3S)-3-((2-methyl-6-(1-methyl-5-(((methyl(propyl)carbamoyl)-oxy)methyl)-1H-1,2,3-triazol-4-yl)pyridin-3-yl)oxy)cyclohexane-1-carboxylic acid]
BP reduction dose dependence (in words) ([1]; Japanese MAD cohorts): no clear Compound A dose-dependent BP reduction trend
Maximum of Mean (±SD) Reduction in DBP from Baseline (Baseline) ([1]; 30 mg BID (C1)): 8.8 ± 5.12 mmHg
Maximum of Mean (±SD) Reduction in DBP from Baseline (Baseline) ([1]; 60 mg BID (C2)): 8.2 ± 10.40 mmHg
Maximum of Mean (±SD) Reduction in DBP from Baseline (Baseline) ([1]; 90 mg BID (C2)): 8.0 ± 8.22 mmHg
efficacy compared to PBO (in words) (participants with IPF; 30 mg dose group, Week 26): did not demonstrate efficacy
treatment response versus PBO (in words) (participants with IPF; 60 mg dose group, Week 26, ppFVC and FVC (mL)): favorable treatment responses
relative treatment benefit compared to PBO (ppFVC) (participants with IPF; not on background SoC, primary estimand): 113%
relative treatment benefit compared to PBO (ppFVC) (participants with IPF; not on background SoC, supplementary estimand): 123%
relative treatment benefit compared to PBO (ppFVC) (participants with IPF; on background SoC, primary estimand): 39%
relative treatment benefit compared to PBO (ppFVC) (participants with IPF; on background SoC, supplementary estimand): 44%
relative reduction in rate of decline in ppFVC compared to PBO (participants with IPF; primary estimand): 54%
relative reduction in rate of decline in ppFVC compared to PBO (participants with IPF; supplementary estimand): 62%
Mean DBP ([2]; MAD 10 mg QD, D 1 2 h): 70.2
Mean DBP ([2]; MAD 10 mg QD, D 1 4 h): 65.8
Mean DBP ([2]; MAD 10 mg QD, D 1 8 h): 68.7
Mean DBP ([2]; MAD 10 mg QD, D 2 24 h): 65.3
Mean DBP ([2]; MAD 10 mg QD, D 14 312 h): 69.3
Mean DBP ([2]; MAD 10 mg QD, D 14 314 h): 67.5
Mean DBP ([2]; MAD 10 mg QD, D 14 317 h): 64.3
Mean DBP ([2]; MAD 10 mg QD, D 14 320 h): 67.5
Mean DBP ([2]; MAD 10 mg QD, D 15 336 h): 66.8
Mean DBP ([2]; MAD 30 mg BID, D 1 2 h): 63.3
Mean DBP ([2]; MAD 30 mg BID, D 1 4 h): 62.7
Mean DBP ([2]; MAD 30 mg BID, D 1 8 h): 63.2
Mean DBP ([2]; MAD 30 mg BID, D 2 24 h): 66.7
Mean DBP ([2]; MAD 30 mg BID, D 14 312 h): 68.7
Mean DBP ([2]; MAD 30 mg BID, D 14 314 h): 63.8
Mean DBP ([2]; MAD 30 mg BID, D 14 317 h): 61.0
Mean DBP ([2]; MAD 30 mg BID, D 14 320 h): 617
Mean DBP ([2]; MAD 30 mg BID, D 15 336 h): 65.3
Mean DBP ([2]; MAD 30 mg QD, D 1 2 h): 66.5
Mean DBP ([2]; MAD 30 mg QD, D 1 4 h): 67.8
Mean DBP ([2]; MAD 30 mg QD, D 1 8 h): 66.0
Mean DBP ([2]; MAD 30 mg QD, D 2 24 h): 67.3
Mean DBP ([2]; MAD 30 mg QD, D 14 312 h): 63.3
Mean DBP ([2]; MAD 30 mg QD, D 14 314 h): 63.5
Mean DBP ([2]; MAD 30 mg QD, D 14 317 h): 61.8
Mean DBP ([2]; MAD 30 mg QD, D 14 320 h): 63.2
Mean DBP ([2]; MAD 30 mg QD, D 15 336 h): 62.3
Mean DBP ([2]; MAD 60 mg BID, D 1 2 h): 64.5
Mean DBP ([2]; MAD 60 mg BID, D 1 4 h): 66.0
Mean DBP ([2]; MAD 60 mg BID, D 1 8 h): 64.7
Mean DBP ([2]; MAD 60 mg BID, D 2 24 h): 65.7
Mean DBP ([2]; MAD 60 mg BID, D 14 312 h): 64.8
Mean DBP ([2]; MAD 60 mg BID, D 14 314 h): 64.0
Mean DBP ([2]; MAD 60 mg BID, D 14 317 h): 62.5
Mean DBP ([2]; MAD 60 mg BID, D 14 320 h): 63.0
Mean DBP ([2]; MAD 60 mg BID, D 15 336 h): 64.5
Mean DBP ([2]; MAD 125 mg BID, D 1 2 h): 62.3
Mean DBP ([2]; MAD 125 mg BID, D 1 4 h): 64.7
Mean DBP ([2]; MAD 125 mg BID, D 1 8 h): 64.7
Mean DBP ([2]; MAD 125 mg BID, D 2 24 h): 66.3
Mean DBP ([2]; MAD 125 mg BID, D 14 312 h): 62.0
Mean DBP ([2]; MAD 125 mg BID, D 14 314 h): 65.0
Mean DBP ([2]; MAD 125 mg BID, D 14 317 h): 59.2
Mean DBP ([2]; MAD 125 mg BID, D 14 320 h): 61.8
Mean DBP ([2]; MAD 125 mg BID, D 15 336 h): 63.0
BP reductions versus placebo (in words) ([2]; MAD BID groups): no clear differences between placebo and the Compound A groups
